Legend:
spring barley = assay: Test D postemergence; type: in vivo, Hordeum vulgare; conditions: Hordeum vulgare, post-emergence, Postemergence, scale 0 to 100 (0 no effect, 100 complete control), read-out: Plant response rating, Barley, Spring
From the text: (§1) Seeds of plant species selected from bluegrass (annual bluegrass, Poa annua), blackgrass (Alopecurus myosuroides), canarygrass (littleseed canarygrass, Phalaris minor), chickweed (common chickweed, Stellaria media), galium (catchweed bedstraw, Galium aparine), bromegrass, downy (downy bromegrass, Bromus tectorum), field poppy (Papaver rhoeas), field violet (Viola arvensis), green foxtail (Setaria viridis), deadnettle (henbit deadnettle, Lamium amplexicaule), Italian ryegrass (Lolium multiflorum), kochia (Kochia scoparia), lambsquarters (Chenopodium album), oilseed rape (Brassica napus), pigweed (Amaranthus retroflexus), chamomile (scentless chamomile, Matricaria inodora), Russian thistle (Salsola kali), speedwell (bird's-eye speedwell, Veronica persica), spring barley (Hordeum vulgare), spring wheat (Triticum aestivum), wild buckwheat (Polygonum convolvulus), wild mustard (Sinapis arvensis), wild oat (Avena fatua), wild radish (Raphanus raphanistrum), windgrass (Apera spica-venti), winter barley (Hordeum vulgare), and winter wheat (Triticum aestivum) were planted into a silt loam soil and treated preemergence with test chemicals formulated in a non-phytotoxic solvent mixture which included a surfactant.
(§2) At the same time, these species were planted in pots containing Redi-Earth® planting medium (Scotts Company, 14111 Scottslawn Road, Marysville, Ohio 43041) comprising spaghnum peat moss, vermiculite, wetting agent and starter nutrients and treated with postemergence applications of the test chemicals formulated in the same manner. Plants ranged in height from 2 to 18 cm (1- to 4-leaf stage). Treated plants and controls were maintained in a controlled growth environment for 7 to 21 days after which time all species were compared to controls and visually evaluated. Plant response ratings, summarized in Table D, are based on a scale of 0 to 100 where 0 is no effect and 100 is complete control. A dash (-) response means no test result.

winter barley = assay: Test D postemergence; type: in vivo, Hordeum vulgare; conditions: Hordeum vulgare, post-emergence, Postemergence, scale 0 to 100 (0 no effect, 100 complete control), read-out: Plant response rating, Barley, Winter
From the text: as §1, §2

green foxtail = assay: Test D preemergence; type: in vivo, Setaria viridis; conditions: Setaria viridis, pre-emergence
From the text: as §1, §2

bromegrass, downy [1] = assay: Test D preemergence; type: in vivo, Bromus tectorum; conditions: Bromus tectorum, pre-emergence
Outline: (§3)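 Greenhouse herbicide screen. Sowing into silt loam for preemergence application; foliar application to 2–18 cm seedlings in potting mix for postemergence. 0–100 visual control rating after 7–21 d.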

blackgrass = assay: Test D preemergence; type: in vivo, Alopecurus myosuroides; conditions: Alopecurus myosuroides, pre-emergence
Outline: as §3

bromegrass, downy [2] = assay: Test D postemergence; type: in vivo, Bromus tectorum; conditions: Bromus tectorum, post-emergence, Postemergence, scale 0 to 100 (0 no effect, 100 complete control), read-out: Plant response rating, Bromegrass, Downy
Outline: as §3

wild oat = assay: Test D postemergence; type: in vivo, Avena fatua; conditions: Avena fatua, post-emergence
Outline: as §3

bluegrass [3] = assay: Test D preemergence; type: in vivo, Poa annua; conditions: Poa annua, pre-emergence
Outline: as §3

canarygrass = assay: Test D preemergence; type: in vivo, Phalaris minor; conditions: Phalaris minor, pre-emergence
From the text: as §1, §2

lambsquarters = assay: Test D postemergence; type: in vivo, Chenopodium album; conditions: Chenopodium album, post-emergence
Outline: as §3

bluegrass [4] = assay: Test D postemergence; type: in vivo, Poa annua; conditions: Poa annua, post-emergence, Postemergence, scale 0 to 100 (0 no effect, 100 complete control), read-out: Plant response rating, Bluegrass
From the text: as §1, §2

chamomile = assay: Test D postemergence; type: in vivo, Matricaria inodora; conditions: Tripleurospermum inodorum, post-emergence
From the text: as §1, §2

FC(F)(F)c1cnn(-c2ccccc2Oc2ncc(Br)cn2)c1 [Compound 18, 5-bromo-2-[2-[4-(trifluoromethyl)-1H-pyrazol-1-yl]phenoxy]pyrimidine]
5%: plant injury at 16 g/ha (spring barley; 16 g ai/ha) | plant injury at 31 g/ha (spring barley; 31 g ai/ha) | pest or weed control at 16 g/ha (green foxtail; 16 g ai/ha, scale 0 (no effect) to 100 (complete control), read-out: Plant response rating, Foxtail, Green) | pest or weed control at 62 g/ha (bromegrass, downy [1]; 62 g ai/ha, scale 0-100, read-out: Plant response rating, Bromegrass, Downy) | pest or weed control at 31 g/ha (blackgrass; 31 g ai/ha, scale 0-100, read-out: Plant response rating, Blackgrass) | pest or weed control at 16 g/ha (chamomile; 16 g ai/ha, scale 0-100, read-out: Plant response rating, Chamomile) | pest or weed control at 62 g/ha (chamomile; 62 g ai/ha, scale 0 to 100 (0 no effect, 100 complete control), read-out: Plant response rating, Chamomile)
70%: pest or weed control at 62 g/ha (bluegrass [3]; 62 g ai/ha, scale 0-100, read-out: Plant response rating, Bluegrass)
65%: pest or weed control at 62 g/ha (canarygrass; 62 g ai/ha, scale 0-100, read-out: Plant response rating, Canarygrass)
0%: pest or weed control at 16 g/ha (bromegrass, downy [1]; 16 g ai/ha, scale 0 (no effect) to 100 (complete control), read-out: Plant response rating, Bromegrass, Downy) | pest or weed control at 31 g/ha (bromegrass, downy [1]; 31 g ai/ha, scale 0-100, read-out: Plant response rating, Bromegrass, Downy) | pest or weed control at 16 g/ha (blackgrass; 16 g ai/ha, scale 0 (no effect) to 100 (complete control), read-out: Plant response rating, Blackgrass)
30%: pest or weed control at 31 g/ha (bluegrass [3]; 31 g ai/ha, scale 0-100, read-out: Plant response rating, Bluegrass) | pest or weed control at 62 g/ha (bluegrass [4]; 62 g ai/ha)
90%: pest or weed control at 62 g/ha (lambsquarters; 62 g ai/ha, scale 0 to 100 (0 no effect, 100 complete control), read-out: Plant response rating, Lambsquarters)
20%: plant injury at 250 g/ha (winter barley; 250 g ai/ha) | pest or weed control at 125 g/ha (bromegrass, downy [2]; 125 g ai/ha) | pest or weed control at 125 g/ha (wild oat; 125 g ai/ha, scale 0 to 100 (0 no effect, 100 complete control), read-out: Plant response rating, Oat, Wild)
100%: pest or weed control at 250 g/ha (green foxtail; 250 g ai/ha, scale 0-100, read-out: Plant response rating, Foxtail, Green) | pest or weed control at 125 g/ha (blackgrass; 125 g ai/ha, scale 0-100, read-out: Plant response rating, Blackgrass) | pest or weed control at 250 g/ha (blackgrass; 250 g ai/ha, scale 0-100, read-out: Plant response rating, Blackgrass) | pest or weed control at 125 g/ha (bluegrass [3]; 125 g ai/ha, scale 0-100, read-out: Plant response rating, Bluegrass) | pest or weed control at 250 g/ha (bluegrass [3]; 250 g ai/ha, scale 0-100, read-out: Plant response rating, Bluegrass) | pest or weed control at 125 g/ha (canarygrass; 125 g ai/ha, scale 0-100, read-out: Plant response rating, Canarygrass) | pest or weed control at 250 g/ha (canarygrass; 250 g ai/ha, scale 0-100, read-out: Plant response rating, Canarygrass)
25%: plant injury at 250 g/ha (spring barley; 250 g ai/ha) | pest or weed control at 250 g/ha (wild oat; 250 g ai/ha, scale 0 to 100 (0 no effect, 100 complete control), read-out: Plant response rating, Oat, Wild) | pest or weed control at 31 g/ha (canarygrass; 31 g ai/ha, scale 0-100, read-out: Plant response rating, Canarygrass) | pest or weed control at 31 g/ha (bluegrass [4]; 31 g ai/ha)
95%: pest or weed control at 125 g/ha (green foxtail; 125 g ai/ha, scale 0-100, read-out: Plant response rating, Foxtail, Green) | pest or weed control at 125 g/ha (lambsquarters; 125 g ai/ha, scale 0 to 100 (0 no effect, 100 complete control), read-out: Plant response rating, Lambsquarters) | pest or weed control at 250 g/ha (lambsquarters; 250 g ai/ha, scale 0 to 100 (0 no effect, 100 complete control), read-out: Plant response rating, Lambsquarters)
15%: plant injury at 125 g/ha (spring barley; 125 g ai/ha) | plant injury at 125 g/ha (winter barley; 125 g ai/ha) | pest or weed control at 31 g/ha (green foxtail; 31 g ai/ha, scale 0-100, read-out: Plant response rating, Foxtail, Green) | pest or weed control at 16 g/ha (bromegrass, downy [2]; 16 g ai/ha) | pest or weed control at 31 g/ha (bromegrass, downy [2]; 31 g ai/ha) | pest or weed control at 62 g/ha (bromegrass, downy [2]; 62 g ai/ha) | pest or weed control at 250 g/ha (bromegrass, downy [2]; 250 g ai/ha) | pest or weed control at 62 g/ha (wild oat; 62 g ai/ha, scale 0 to 100 (0 no effect, 100 complete control), read-out: Plant response rating, Oat, Wild) | pest or weed control at 16 g/ha (lambsquarters; 16 g ai/ha, scale 0-100, read-out: Plant response rating, Lambsquarters) | pest or weed control at 16 g/ha (bluegrass [4]; 16 g ai/ha)
10%: plant injury at 62 g/ha (spring barley; 62 g ai/ha) | plant injury at 16 g/ha (winter barley; 16 g ai/ha) | plant injury at 31 g/ha (winter barley; 31 g ai/ha) | plant injury at 62 g/ha (winter barley; 62 g ai/ha) | pest or weed control at 125 g/ha (bromegrass, downy [1]; 125 g ai/ha, scale 0-100, read-out: Plant response rating, Bromegrass, Downy) | pest or weed control at 16 g/ha (wild oat; 16 g ai/ha, scale 0-100, read-out: Plant response rating, Oat, Wild) | pest or weed control at 31 g/ha (wild oat; 31 g ai/ha, scale 0 to 100 (0 no effect, 100 complete control), read-out: Plant response rating, Oat, Wild) | pest or weed control at 16 g/ha (bluegrass [3]; 16 g ai/ha, scale 0 (no effect) to 100 (complete control), read-out: Plant response rating, Bluegrass) | pest or weed control at 16 g/ha (canarygrass; 16 g ai/ha, scale 0 (no effect) to 100 (complete control), read-out: Plant response rating, Canarygrass) | pest or weed control at 31 g/ha (chamomile; 31 g ai/ha, scale 0 to 100 (0 no effect, 100 complete control), read-out: Plant response rating, Chamomile) | pest or weed control at 125 g/ha (chamomile; 125 g ai/ha, scale 0 to 100 (0 no effect, 100 complete control), read-out: Plant response rating, Chamomile) | pest or weed control at 250 g/ha (chamomile; 250 g ai/ha, scale 0 to 100 (0 no effect, 100 complete control), read-out: Plant response rating, Chamomile)
40%: pest or weed control at 125 g/ha (bluegrass [4]; 125 g ai/ha) | pest or weed control at 250 g/ha (bluegrass [4]; 250 g ai/ha)
50%: pest or weed control at 62 g/ha (green foxtail; 62 g ai/ha, scale 0-100, read-out: Plant response rating, Foxtail, Green) | pest or weed control at 250 g/ha (bromegrass, downy [1]; 250 g ai/ha, scale 0-100, read-out: Plant response rating, Bromegrass, Downy) | pest or weed control at 62 g/ha (blackgrass; 62 g ai/ha, scale 0-100, read-out: Plant response rating, Blackgrass) | pest or weed control at 31 g/ha (lambsquarters; 31 g ai/ha, scale 0 to 100 (0 no effect, 100 complete control), read-out: Plant response rating, Lambsquarters)
